Assay results from PMC9782211 (Microorganisms, 2022).

Key:
[1] = system: human mononuclear cells (hMNCs); assay: MTT test, metabolic activity of human mononuclear cells; type: cell-based
Description: Furthermore, the MTT assay was performed to determine the metabolic activity of the cells. In this test, the determination of cell viability is based on the reduction of the yellow water-soluble substance 3-(4,5-Dimethylthiazol-2-yl)-2,5-diphenyltetrazoliumbromid (MTT) into a blue-violet water-insoluble formacan.

human erythrocytes = assay: Hemolysis assay; type: cell-based; conditions: pH 7.4, 37 °C, 30 min
Description: The activity of the peptides to lyse freshly isolated human erythrocytes was determined in PBS, pH 7.4 at 37 °C. Dilutions were prepared in duplicate in a round bottom microtiter plate. For that, 20 µL erythrocytes (5 · 10^8 cells/mL) was incubated with 80 µL of a peptide sample at 37 °C for 30 min in a humidified box. The hemolytic activity after incubation was measured by transferring the supernatants into another empty microtiter plate. This plate was read on a microtiter plate reader at 405 nm. Hemolytic activity was expressed as the percentage of released hemoglobin with respect to water/buffer controls (100% release) or controls processed without peptides (0% release).
Red blood cells (RBCs) were obtained from citrated human blood by centrifugation (1500× g, 10 min), washed three times with isotonic 20 mM phosphate-NaCl buffer (pH 7.4), and suspended in the same buffer at a concentration equivalent to 5% of the normal hematocrit. […] The supernatants were analyzed spectrophotometrically (with absorbance at 543 nm) for hemoglobin, and results were expressed as the percentage released with respect to sonicated controls (100% release) or controls processed without peptides (0% release).

hERG ion channel = hERG ion channel (Homo sapiens, UniProt Q12809); assay: Manual patch clamp, hERG channel currents; type: cell-based; conditions: 1 µg/mL, fraction
Description: Manual patch clamp experiments were performed in the whole cell configuration [20] at room temperature. An EPC 10 patch clamp amplifier and the PatchMaster software (v2x90.5; both HEKA Elektronik, Germany) were used. […] The data were analyzed using R (version 3.6.3).
The manual patch clamp recordings on the hERG ion channel were performed with the same stimulation protocol as previously described, with an adjusted holding potential of −70 mV. After the establishment of the whole cell, the stimulation protocol was executed every 15 s for a period of 20 min. The application protocol had the following course: 5 min negative control period with an application of 0.1% DMSO, 10 min application of the test compound in one concentration, and 5 min positive control period with an application of E4031 (10 µM).
The extracellular solution for the recordings contained (in mM): 145 NaCl, 4 KCl, 10 glucose, 10 HEPES, 2 CaCl2, and 1 MgCl2; pH was adjusted to 7.4 by adding NaOH. The osmolarity of the solution was adjusted to 305 mOsmol/kg. The intracellular solution contained (in mM): 120 KCl, 1.7 MgCl2, 4 K2ATP, 5 CaCl2, 10 HEPES, and 10 EGTA; pH was adjusted to 7.2 by adding KOH. The osmolarity was adjusted to 292 mOsmol/kg.

[2] = Maximum attainable test concentration based on solubility; type: physicochemical; conditions: in aqueous 1% Pluronic PE9200
[3] = system: male and female Wistar rats; assay: 14-day repeated dose toxicology, continuous intravenous infusion; type: in vivo, rat
Description: Continuous intravenous infusion was performed over 14 days with 0.5 mg/kg, 3.2 mg/kg, and 20.0 mg/kg Pep19-2.5 and compared to the vehicle in male and female Wistar rats. Groups comprised 10 animals per gender, with an additional 5 animals per gender for recovery animals in the vehicle and high dose groups. The details of the 14-day repeated dose toxicity study will be published elsewhere.
Continuous intravenous infusion was performed over 14 days with 0.5 mg/kg, 3.2 mg/kg and 20.0 mg/kg Pep19-2.5 and compared to the vehicle in male and female Wistar rats. Groups comprised 10 animals per gender, with an additional 5 animals per gender for recovery animals in the vehicle and high dose groups. Based on the parameters determined, the following results were found: […]

male Wistar rats = assay: Modified Irwin test (neurobehavioral activity)
Description: In this test, an examination is done whether or not drugs induce behavioural and physiologically relevant effects. […] The modified Irwin test was performed under GLP conditions and was comprised of a standard observation battery of tests addressing various parameters of the central nervous, autonomic nervous, peripheral motor, and sensory systems.
The study comprised five treatment groups with six male animals each.
The following investigations were made at the following time points: • Mortality: twice daily during the observation period • Clinical observations: on the day of treatment before application • Body weight development: on the day of delivery and on the day of treatment before application • Modified Irwin test: at the time points pre-test (24 h prior to administration), 1 h, 4 h, 7 h, 24 h, 48 h, and 72 h after application.
Statistical analyses of the data were performed for each group separately. Group mean values (means) with standard deviation (SD) were calculated for body weights, each parameter of the Irwin Test, and each investigation time point.
For Irwin Test parameters, statistical differences between the positive control group and the vehicle control group and between the test item groups and the vehicle control group were evaluated by the Mann–Whitney U-test, using an MS Excel® statistics tool developed and validated in-house; p < 0.05 was accepted as the level of significance.

hERG ion channel, sequence (Q12809 whole entry): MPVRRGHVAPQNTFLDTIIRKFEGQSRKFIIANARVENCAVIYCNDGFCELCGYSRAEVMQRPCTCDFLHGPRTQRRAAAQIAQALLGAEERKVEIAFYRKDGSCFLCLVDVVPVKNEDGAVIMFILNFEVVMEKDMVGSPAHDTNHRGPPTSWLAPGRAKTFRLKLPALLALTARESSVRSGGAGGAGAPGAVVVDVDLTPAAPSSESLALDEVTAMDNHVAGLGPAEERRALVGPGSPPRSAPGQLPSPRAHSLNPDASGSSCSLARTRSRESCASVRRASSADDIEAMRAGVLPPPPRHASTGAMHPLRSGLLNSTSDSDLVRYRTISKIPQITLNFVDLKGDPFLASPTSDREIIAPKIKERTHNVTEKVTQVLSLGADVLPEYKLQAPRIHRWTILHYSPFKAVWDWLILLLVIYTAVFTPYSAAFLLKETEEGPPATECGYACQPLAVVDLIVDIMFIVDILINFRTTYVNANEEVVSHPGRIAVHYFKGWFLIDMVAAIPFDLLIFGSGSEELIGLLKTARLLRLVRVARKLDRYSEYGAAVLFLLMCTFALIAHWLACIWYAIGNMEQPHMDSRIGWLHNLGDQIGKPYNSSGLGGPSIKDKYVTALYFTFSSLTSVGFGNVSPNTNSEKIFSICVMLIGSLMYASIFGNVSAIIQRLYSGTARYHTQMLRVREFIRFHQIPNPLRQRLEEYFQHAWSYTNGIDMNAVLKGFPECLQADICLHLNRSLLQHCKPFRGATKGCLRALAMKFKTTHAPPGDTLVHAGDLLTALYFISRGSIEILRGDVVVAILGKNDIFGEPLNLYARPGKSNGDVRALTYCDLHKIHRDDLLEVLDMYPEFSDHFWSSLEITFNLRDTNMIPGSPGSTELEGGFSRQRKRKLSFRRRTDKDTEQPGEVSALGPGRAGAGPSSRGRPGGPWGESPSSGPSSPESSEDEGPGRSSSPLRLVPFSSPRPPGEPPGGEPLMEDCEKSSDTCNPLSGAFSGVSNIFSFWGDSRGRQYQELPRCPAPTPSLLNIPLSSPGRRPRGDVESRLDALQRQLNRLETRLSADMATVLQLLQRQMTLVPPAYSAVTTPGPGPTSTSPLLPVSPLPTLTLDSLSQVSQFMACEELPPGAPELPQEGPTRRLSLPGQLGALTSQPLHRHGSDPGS

Compound: N=C(N)NCCC[C@H](NC(=O)[C@H](Cc1ccc(O)cc1)NC(=O)[C@H](CCCCN)NC(=O)[C@H](CCCCN)NC(=O)[C@H](CS)NC(=O)CN)C(=O)N[C@@H](CCCNC(=N)N)C(=O)N[C@@H](Cc1ccccc1)C(=O)N[C@@H](CCCNC(=N)N)C(=O)N[C@@H](Cc1c[nH]c2ccccc12)C(=O)N[C@@H](CCCCN)C(=O)N[C@@H](Cc1ccccc1)C(=O)N[C@@H](CCCCN)C(=O)NCC(=O)N[C@@H](CCCCN)C(=O)N[C@@H](Cc1ccccc1)C(=O)N[C@@H](Cc1c[nH]c2ccccc12)C(=O)N[C@@H](Cc1ccccc1)C(=O)N[C@@H](Cc1c[nH]c2ccccc12)C(=O)NCC(N)=O [Pep19-2.5]
- metabolic state of the hMNC ([1]; at 100 μg/mL): decreases dramatically
- concentration above which cytotoxicity increases (MTT) ([1]; hMNC, MTT test, Figure 1): above 20 μg/mL
- lysis of erythrocytes (human erythrocytes; at 100 μg/mL, released hemoglobin vs 100% release control): ≤ 20%
- concentration above which cytotoxicity increases (hemolysis) (human erythrocytes): above 20 μg/mL
- Rel. Rem. Current ± SD (Manual Patch-Clamp) (hERG ion channel): 1.00 ± 0.04
- maximum attainable test concentration based on solubility [2]: 5 % (w/v)
- injection site findings ([3]; 20 mg/kg dose group): local irritating effect
- body weight gain ([3]; all dose groups): No statistically significant effect
- ophthalmology, clinical chemistry, urine, organ weights ([3]; all dose groups): not affected
- aPTT ([3]; female Wistar rats, 0.5 mg/kg/day, n = 10): 19.9 ± 2.2 s
- PT ([3]; female, 0.5 mg/kg/day, n = 10): 20.3 ± 2.5 s
- TT ([3]; female, 0.5 mg/kg/day, n = 10): 25.7 ± 1.0 s
- TT ([3]; female, 3.2 mg/kg/day, n = 10): 25.4 ± 1.0 s
- TT ([3]; female, 20.0 mg/kg/day, n = 10): 25.8 ± 0.7 s
- mortality ([3]; high dose group 20 mg/kg): One male of the high dose group died
- reticulocytes ([3]; high dose group, both genders, complete recovery): slightly reduced
- behavioural findings ([3]; high dose group, single animals): test item-related behavioural findings (increased activity, muscle tremor, increased incidence of animals showing signs of discomfort, such as chromorhinorrhea or piloerection)
- aPTT ([3]; male Wistar rats, 0.5 mg/kg/day, end of infusion, mean ± SD, n = 9): 19.9 ± 1.7 s
- TT ([3]; male, 0,5 mg/kg/day, n = 9): 25.3 ± 1.0 s
- PT ([3]; male, 0.5 mg/kg/day, n = 9): 20.0 ± 1.1 s
- PT ([3]; male, 3.2 mg/kg/day, n = 10): 21.5 ± 1.3 s
- TT ([3]; male, 3.2 mg/kg/day, n = 10): 25.0 ± 0.9 s
- aPTT ([3]; male, 3.2 mg/kg/day, n = 10): 18.6 ± 1.8 s
- TT ([3]; male, 20.0 mg/kg/day, n = 7): 25.0 ± 0.8 s
- PT ([3]; male, n = 7, printed 0.5 mg/kg/day): 20.9 ± 1.3 s
- histopathological systemic toxicity ([3]; rat, in vivo): absence of any histopathological systemic toxicity
- spontaneous locomotor activity, median score (male Wistar rats; 0.02 mg/kg b.w., 1 h, negative control 0.0, not significant): −0.5
- positional passivity, median score (male Wistar rats; 0.02 mg/kg, 1 h, saline 1.0, p < 0.05): 0.0
- hind limb tone, median score (male Wistar rats; 0.02 mg/kg, 72 h, negative control 1.0): 2.0
- spontaneous locomotor activity, median score (male Wistar rats; 0.2 mg/kg b.w., 48 and 72 h, saline −1.0, p < 0.05 at 72 h): 0.5
- spontaneous locomotor activity, median score (male Wistar rats; 0.2 mg/kg b.w., 1 h, negative control 0.0, not significant): −1.0
- head touch, median score (male Wistar rats; 0.2 mg/kg, 7 h, saline −1.0, p < 0.01): 0.0
- rearing, median score (male Wistar rats; 0.2 mg/kg, 48 h, saline −1.0, p < 0.05): 1.0
- finger approach, median score (male Wistar rats; 0.2 mg/kg, 72 h, saline 0.0, p < 0.05): 2.0
- rearing, median score (male Wistar rats; 0.2 mg/kg, 72 h, saline −1.0, p < 0.01): 1.0
- spontaneous locomotor activity, median score (male Wistar rats; 2 mg/kg b.w., 1 h, negative control 0.0, not significant): −1.0
- effect in Irwin test (male Wistar rats; high dose 2 mg/kg single i.v.): Significant differences were also observed in the high dose group (2 mg/kg), in terms of sensitivity to pinching the tail and vocalization when touched and hind limb reflex
- vocalization when touched, median score (male Wistar rats; high dose 2 mg/kg, 1 and 24 h, control 0.0, p < 0.05): 1.0
- sensitivity to pinching of the tail, median score (male Wistar rats; high dose 2 mg/kg, 1 h, negative control 0.0, p < 0.01): −1.5
- sensitivity to pinching of the tail, median score (male Wistar rats; high dose 2 mg/kg, 7 h, saline 0.0, p < 0.05): −1.5
- effect in Irwin test (male Wistar rats; low dose 0.02 mg/kg single i.v.): No effect
- sensitivity to pinching of the tail, median score (male Wistar rats; low dose 0.02 mg/kg, 1 h): 0.0
- effect in Irwin test (male Wistar rats; mid dose 0.2 mg/kg single i.v.): significant differences to the negative control were noted in rearing, spontaneous locomotor activity and sensitivity to pinching the tail
- sensitivity to pinching of the tail, median score (male Wistar rats; mid dose 0.2 mg/kg, 1 h): −1.5
- neurobehavioral effects overall (male Wistar rats; single i.v., 0.02, 0.2 and 2 mg/kg): No relevant neurobehavioral effects
